This is an account of results in patent US12059565B1, “Methods and systems for modulating unconsciousness or anesthesia in a subject” (priority 2019, dated 2024).

In data set [1] the test system is EEG SWA / behavioral responsiveness. The conditions noted are these: during TCI dexmedetomidine sedation; expected, based on Sleigh and colleagues.
Source text: Participants will undergo three arousals during this phase of the experiment: one during in-phase stimulation, one during anti-phase stimulation, and one during sham stimulation (FIG. 13). The order of CLASS conditions under which a participant will be aroused is the same as in Phase 2, which is balanced across participants. Each arousal will be preceded by at least three consecutive minutes of acoustic stimulation, which will continue during the arousal procedure. The arousal procedure consists of the same ramping thermal stimulation used during pre-sedation QST. The cardinal difference between pre-sedation QST and arousal QST is that one of the investigators will be tasked with pressing the button to end the thermal ramp instead of the sedated participant. The investigator will end the arousal protocol as soon as they observe purposeful behavior in response to the thermal stimulation. The investigator will also be able to terminate the thermal stimulation at their clinical discretion. Vital signs, EEG, and video recording will allow review of the time of arousal during post-hoc analysis. […] Assessors of arousal will be blinded to the acoustic stimulation conditions. Once a participant has been definitively aroused, thermal stimulation will cease. […]
Another data set relates to alpha2 receptors. The conditions noted are these: cited from earlier work.
For data set [2] the following is noted: healthy volunteers; conservative estimate; cited from earlier work.
For data set [3] the following is noted: infused for several hours to days at 1.5 mcg/kg/hr, critically ill patients; cited from earlier work.
[4] abbreviates: target effect site concentrations of 2.0-4.0 ng/ml, most participants.

With `Cc1cccc([C@H](C)c2cnc[nH]2)c1C` [dexmedetomidine], in data set [1], the “time for EEG SWA to return to pre-arousal levels” value was ≤ 10 min and the “time to return to a state of unresponsiveness after thermal arousal” value is ≤ 60 s. The “most common adverse events” value in the data set with alpha2 receptors (dexmedetomidine infusions) was “bradycardia, hypotension and hypertension”. The “haemodynamic effect at low plasma concentrations” value in the data set with alpha2 receptors (plasma concentration <1 ng/ml, agonism at alpha2 receptors in the central nervous system) is “decrease in peripheral vascular resistance and heart rate”. In addition, the “haemodynamic effect at higher plasma concentrations” value with alpha2 receptors (plasma concentration >4 ng/ml, agonism at alpha2 receptors on vascular smooth muscle) was “hypertension and worsening reflex bradycardia”. Further, in the data set on alpha2 receptors (setting [4]), the HR is given as > 75 % from baseline, the MAP entry was “near-baseline” and the level of sedation entry is “moderately sedated”. The “equilibration constant (t1/2 ke0)” value in data set [2] is 3 min. Further, in data set [3], the steady-state concentration is 2.5 to 3.0 ng/mL.
